How the values were obtained:
CLK2 = CLK2 (Homo sapiens, UniProt P49760); assay: biochemical; settings: read-out: % enzyme activity, 1 μM; Run 1, Run 2
ZIPK/DAPK3 = ZIPK/DAPK3 (Homo sapiens, UniProt O43293); assay: biochemical; settings: read-out: % enzyme activity, 1 μM; Run 1, Run 2
P38a/MAPK14 = P38a/MAPK14 (Homo sapiens, UniProt Q16539); assay: biochemical; settings: read-out: % enzyme activity, 1 μM; Run 1, Run 2
COT1/MAP3K8 = COT1/MAP3K8 (Homo sapiens, UniProt P41279); assay: biochemical; settings: read-out: % enzyme activity, 1 μM; Run 1, Run 2
TNK1 = molecular target: T1, TNK1 (Homo sapiens, UniProt Q13470); settings: 1 μM; Run 1, Run 2
T1 sequence (Q13470 1-666): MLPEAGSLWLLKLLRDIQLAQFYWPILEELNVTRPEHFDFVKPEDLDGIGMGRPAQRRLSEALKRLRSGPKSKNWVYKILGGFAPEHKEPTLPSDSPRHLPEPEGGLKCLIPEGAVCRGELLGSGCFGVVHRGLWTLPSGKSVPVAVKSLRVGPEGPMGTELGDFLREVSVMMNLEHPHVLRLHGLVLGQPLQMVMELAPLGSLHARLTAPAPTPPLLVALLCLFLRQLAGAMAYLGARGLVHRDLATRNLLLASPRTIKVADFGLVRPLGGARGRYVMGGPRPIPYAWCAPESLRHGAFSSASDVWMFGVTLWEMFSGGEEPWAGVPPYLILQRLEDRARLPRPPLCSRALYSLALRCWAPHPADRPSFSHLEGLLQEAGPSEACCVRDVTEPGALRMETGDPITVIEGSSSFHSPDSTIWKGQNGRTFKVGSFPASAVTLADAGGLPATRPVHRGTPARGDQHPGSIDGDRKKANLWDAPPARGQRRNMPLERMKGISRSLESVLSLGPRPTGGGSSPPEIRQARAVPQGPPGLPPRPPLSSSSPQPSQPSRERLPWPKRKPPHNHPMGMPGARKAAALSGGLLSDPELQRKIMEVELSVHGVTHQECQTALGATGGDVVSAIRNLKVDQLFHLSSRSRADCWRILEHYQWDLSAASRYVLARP

NEK8 = molecular target: T2, NEK8 (Homo sapiens, UniProt Q86SG6); settings: 1 μM; Run 1, Run 2
T2 sequence (Q86SG6 1-692): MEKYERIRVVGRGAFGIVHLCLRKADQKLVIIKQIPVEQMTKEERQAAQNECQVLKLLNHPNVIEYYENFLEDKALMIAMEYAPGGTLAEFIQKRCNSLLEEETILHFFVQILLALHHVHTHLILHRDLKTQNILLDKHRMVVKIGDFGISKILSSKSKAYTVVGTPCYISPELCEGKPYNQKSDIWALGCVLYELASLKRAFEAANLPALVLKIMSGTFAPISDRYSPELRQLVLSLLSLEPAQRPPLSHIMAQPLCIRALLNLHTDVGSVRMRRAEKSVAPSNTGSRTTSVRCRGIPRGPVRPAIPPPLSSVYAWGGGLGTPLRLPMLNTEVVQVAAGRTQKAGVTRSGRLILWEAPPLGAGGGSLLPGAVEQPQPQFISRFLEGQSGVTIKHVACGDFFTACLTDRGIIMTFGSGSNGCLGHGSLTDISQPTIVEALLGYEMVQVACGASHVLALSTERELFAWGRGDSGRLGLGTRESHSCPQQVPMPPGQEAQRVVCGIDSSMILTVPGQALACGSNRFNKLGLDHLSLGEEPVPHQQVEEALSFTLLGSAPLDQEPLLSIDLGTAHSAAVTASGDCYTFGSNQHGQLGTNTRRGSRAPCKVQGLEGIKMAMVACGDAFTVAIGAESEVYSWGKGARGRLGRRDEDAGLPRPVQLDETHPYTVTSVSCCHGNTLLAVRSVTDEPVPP

PKD2/PRKD2 = molecular target: T3, PKD2/PRKD2 (Homo sapiens, UniProt Q9BZL6); assay: biochemical; settings: read-out: % enzyme activity, 1 μM; Run 1, Run 2
T3 sequence (Q9BZL6 1-878): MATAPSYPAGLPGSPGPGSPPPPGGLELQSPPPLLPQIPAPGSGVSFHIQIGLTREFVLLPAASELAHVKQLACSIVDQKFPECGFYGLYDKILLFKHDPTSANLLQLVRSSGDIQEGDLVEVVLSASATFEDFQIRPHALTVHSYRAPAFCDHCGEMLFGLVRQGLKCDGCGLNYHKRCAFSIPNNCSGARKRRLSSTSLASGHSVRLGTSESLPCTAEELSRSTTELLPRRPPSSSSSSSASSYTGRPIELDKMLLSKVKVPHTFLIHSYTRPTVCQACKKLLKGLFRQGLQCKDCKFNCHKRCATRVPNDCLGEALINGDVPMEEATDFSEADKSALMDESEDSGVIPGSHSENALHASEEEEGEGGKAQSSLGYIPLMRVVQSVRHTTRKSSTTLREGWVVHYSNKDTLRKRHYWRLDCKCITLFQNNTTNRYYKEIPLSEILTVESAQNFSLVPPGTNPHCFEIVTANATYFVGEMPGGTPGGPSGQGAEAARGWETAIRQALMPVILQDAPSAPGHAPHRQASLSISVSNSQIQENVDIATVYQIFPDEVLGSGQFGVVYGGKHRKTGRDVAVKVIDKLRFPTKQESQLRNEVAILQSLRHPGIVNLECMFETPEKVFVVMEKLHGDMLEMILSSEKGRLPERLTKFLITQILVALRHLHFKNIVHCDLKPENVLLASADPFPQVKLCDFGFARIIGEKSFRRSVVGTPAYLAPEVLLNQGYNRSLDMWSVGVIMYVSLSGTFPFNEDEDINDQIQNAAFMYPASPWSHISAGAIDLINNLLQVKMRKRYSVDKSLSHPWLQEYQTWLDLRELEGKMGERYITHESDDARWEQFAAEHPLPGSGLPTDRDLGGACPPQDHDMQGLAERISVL

TESK2 = TESK2 (Homo sapiens, UniProt Q96S53); settings: 1 μM; Run 1, Run 2
Aurora C = molecular target: T4, Aurora C (Homo sapiens, UniProt Q9UQB9); settings: 1 μM; Run 1, Run 2
T4 sequence (Q9UQB9 1-309): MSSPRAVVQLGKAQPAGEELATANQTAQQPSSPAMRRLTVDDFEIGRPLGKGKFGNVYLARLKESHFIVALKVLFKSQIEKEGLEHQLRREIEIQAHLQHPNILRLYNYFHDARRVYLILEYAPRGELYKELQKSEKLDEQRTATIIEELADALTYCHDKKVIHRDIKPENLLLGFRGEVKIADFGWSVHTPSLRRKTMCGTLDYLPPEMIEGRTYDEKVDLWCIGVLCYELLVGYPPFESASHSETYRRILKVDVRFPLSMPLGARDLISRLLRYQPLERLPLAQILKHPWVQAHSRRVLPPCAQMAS

PKN2/PRK2 = PKN2/PRK2 (Homo sapiens, UniProt Q16513); assay: biochemical; settings: read-out: % enzyme activity, 1 μM; Run 1, Run 2
Sequence of PKN2/PRK2 (Q16513 whole entry): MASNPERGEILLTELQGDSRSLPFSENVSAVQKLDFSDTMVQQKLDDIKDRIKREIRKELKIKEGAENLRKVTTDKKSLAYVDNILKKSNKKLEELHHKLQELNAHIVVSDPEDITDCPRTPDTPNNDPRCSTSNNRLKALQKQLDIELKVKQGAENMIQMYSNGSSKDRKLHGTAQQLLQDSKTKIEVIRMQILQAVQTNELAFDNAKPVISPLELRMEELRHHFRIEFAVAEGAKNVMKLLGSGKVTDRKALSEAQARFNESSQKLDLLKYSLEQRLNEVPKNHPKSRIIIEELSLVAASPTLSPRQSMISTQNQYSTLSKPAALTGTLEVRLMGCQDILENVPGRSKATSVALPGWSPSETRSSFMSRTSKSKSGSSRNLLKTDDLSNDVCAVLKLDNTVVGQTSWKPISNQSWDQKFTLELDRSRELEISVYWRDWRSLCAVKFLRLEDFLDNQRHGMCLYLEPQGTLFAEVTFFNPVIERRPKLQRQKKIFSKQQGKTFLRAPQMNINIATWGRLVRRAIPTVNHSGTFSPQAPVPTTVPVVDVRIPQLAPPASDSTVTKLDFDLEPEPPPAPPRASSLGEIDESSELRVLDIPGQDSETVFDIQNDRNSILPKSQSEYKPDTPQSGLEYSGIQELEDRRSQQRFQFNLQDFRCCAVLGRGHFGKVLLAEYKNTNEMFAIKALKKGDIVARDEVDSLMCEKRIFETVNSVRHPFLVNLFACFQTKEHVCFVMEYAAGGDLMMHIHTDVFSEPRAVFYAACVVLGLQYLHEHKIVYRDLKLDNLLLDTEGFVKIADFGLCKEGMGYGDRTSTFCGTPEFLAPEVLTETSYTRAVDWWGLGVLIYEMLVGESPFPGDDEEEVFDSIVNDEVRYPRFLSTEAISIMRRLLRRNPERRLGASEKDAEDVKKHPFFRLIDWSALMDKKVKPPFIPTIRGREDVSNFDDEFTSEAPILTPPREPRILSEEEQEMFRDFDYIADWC

Sequence of CLK2 (P49760 whole entry): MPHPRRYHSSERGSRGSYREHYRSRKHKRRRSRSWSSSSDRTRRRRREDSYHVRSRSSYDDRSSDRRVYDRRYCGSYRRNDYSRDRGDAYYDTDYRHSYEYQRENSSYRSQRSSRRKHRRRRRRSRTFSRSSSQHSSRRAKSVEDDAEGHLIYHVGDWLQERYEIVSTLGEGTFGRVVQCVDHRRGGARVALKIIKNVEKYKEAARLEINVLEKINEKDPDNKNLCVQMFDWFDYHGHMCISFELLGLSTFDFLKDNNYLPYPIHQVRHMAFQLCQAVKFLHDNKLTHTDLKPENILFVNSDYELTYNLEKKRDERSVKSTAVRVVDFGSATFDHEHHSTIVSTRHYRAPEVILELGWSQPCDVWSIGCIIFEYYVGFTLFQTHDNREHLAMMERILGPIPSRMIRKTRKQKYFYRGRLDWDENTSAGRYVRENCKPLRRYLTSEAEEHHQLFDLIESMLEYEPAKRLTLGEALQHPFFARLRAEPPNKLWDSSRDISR
Sequence of ZIPK/DAPK3 (O43293 whole entry): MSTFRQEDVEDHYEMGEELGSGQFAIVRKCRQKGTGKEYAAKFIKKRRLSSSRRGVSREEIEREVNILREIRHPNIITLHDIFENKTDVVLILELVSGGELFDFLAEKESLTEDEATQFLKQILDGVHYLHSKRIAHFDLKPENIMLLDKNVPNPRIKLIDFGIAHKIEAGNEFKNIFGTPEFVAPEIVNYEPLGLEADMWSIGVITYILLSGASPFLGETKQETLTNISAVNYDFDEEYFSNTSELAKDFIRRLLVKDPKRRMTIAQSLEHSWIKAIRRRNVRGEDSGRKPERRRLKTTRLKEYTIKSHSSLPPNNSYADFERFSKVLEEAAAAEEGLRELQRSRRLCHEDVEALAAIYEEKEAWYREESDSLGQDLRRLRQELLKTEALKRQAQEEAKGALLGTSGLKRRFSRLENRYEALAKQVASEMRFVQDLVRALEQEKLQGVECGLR
Sequence of COT1/MAP3K8 (P41279 whole entry): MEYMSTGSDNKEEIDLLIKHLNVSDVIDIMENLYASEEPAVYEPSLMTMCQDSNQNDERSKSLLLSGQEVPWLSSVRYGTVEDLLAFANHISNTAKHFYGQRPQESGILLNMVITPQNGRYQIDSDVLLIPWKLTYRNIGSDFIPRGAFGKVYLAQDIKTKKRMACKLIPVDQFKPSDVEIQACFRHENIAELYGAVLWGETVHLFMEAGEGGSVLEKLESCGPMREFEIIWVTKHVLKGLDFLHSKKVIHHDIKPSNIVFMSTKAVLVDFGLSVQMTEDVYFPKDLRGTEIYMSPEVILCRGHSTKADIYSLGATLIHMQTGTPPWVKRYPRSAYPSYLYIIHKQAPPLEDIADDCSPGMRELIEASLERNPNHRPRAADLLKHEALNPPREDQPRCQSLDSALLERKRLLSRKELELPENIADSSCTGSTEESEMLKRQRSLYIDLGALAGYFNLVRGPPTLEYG
Sequence of TESK2 (Q96S53 whole entry): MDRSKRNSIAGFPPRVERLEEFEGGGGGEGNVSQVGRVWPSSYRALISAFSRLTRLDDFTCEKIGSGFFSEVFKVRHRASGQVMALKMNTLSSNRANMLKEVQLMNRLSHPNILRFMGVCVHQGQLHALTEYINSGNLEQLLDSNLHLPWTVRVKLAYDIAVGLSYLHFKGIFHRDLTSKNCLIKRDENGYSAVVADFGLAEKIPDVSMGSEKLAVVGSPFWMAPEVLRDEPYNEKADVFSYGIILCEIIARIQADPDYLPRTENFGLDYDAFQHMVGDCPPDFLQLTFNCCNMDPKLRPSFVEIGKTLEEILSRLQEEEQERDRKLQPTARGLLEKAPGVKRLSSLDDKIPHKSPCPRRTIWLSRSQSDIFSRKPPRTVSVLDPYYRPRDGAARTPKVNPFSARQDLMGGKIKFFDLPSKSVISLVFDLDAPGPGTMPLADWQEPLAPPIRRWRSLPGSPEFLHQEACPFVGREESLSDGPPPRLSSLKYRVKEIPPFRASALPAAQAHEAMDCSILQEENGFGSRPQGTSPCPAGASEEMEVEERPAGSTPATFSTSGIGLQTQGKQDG
Sequence of P38a/MAPK14 (Q16539 whole entry): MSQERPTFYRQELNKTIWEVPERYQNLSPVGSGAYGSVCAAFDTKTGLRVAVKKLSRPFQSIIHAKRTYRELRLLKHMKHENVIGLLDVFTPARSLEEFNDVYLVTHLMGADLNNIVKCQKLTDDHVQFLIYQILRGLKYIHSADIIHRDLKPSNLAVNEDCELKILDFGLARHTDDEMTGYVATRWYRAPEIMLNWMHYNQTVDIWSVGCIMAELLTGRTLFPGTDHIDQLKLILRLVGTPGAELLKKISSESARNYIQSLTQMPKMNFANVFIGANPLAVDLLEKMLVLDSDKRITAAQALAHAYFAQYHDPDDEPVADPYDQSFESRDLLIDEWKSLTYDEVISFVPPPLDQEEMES

| Structure (SMILES) | remaining activity at 1 µM (CLK2) | remaining activity at 1 µM (ZIPK/DAPK3) | remaining activity at 1 µM (P38a/MAPK14) | remaining activity at 1 µM (COT1/MAP3K8) | % enzyme activity (TNK1) | % enzyme activity (NEK8) | remaining activity at 1 µM (PKD2/PRKD2) | % enzyme activity (TESK2) | % enzyme activity (Aurora C) | remaining activity at 1 µM (PKN2/PRK2) |
| --- | --- | --- | --- | --- | --- | --- | --- | --- | --- | --- |
| COc1cc(-c2cncc(-c3ccc(N4C[C@@H](C)N(C)[C@@H](C)C4)cc3)c2C)cc(F)c1C(N)=O [Compound 26c, 2-Fluoro-6-methoxy-4-(4-methyl-5-(4-((3R,5S)-3,4,5-trimethylpiperazin-1-yl)phenyl)pyridin-3-yl)benzamide] | 90.3% | 104% | 97% | 92.9% | 98.22% | 106.54% | 99.2% | 92.03% | 99.34% | 95.9% |
| COc1cc(-c2cncc(-c3ccc(N4CCN(C)CC4)cc3)c2C)cc(F)c1C(N)=O [Compound 26a, 2-Fluoro-6-methoxy-4-(4-methyl-5-(4-(4-methylpiperazin-1-yl)phenyl)pyridin-3-yl)benzamide] | 91.7% | 104% | 92.7% | 88.7% | 99.53% | 98.06% | 96.1% | 93.89% | 103.00% | 94.5% |
